Literature values, collected in patent publication US20100056546A1, “SULFONYLUREA INHIBITORS OF ATP-SENSITIVE POTASSIUM CHANNELS” (Auspex Pharmaceuticals, Inc., priority 2008, published 2010).

Conditions: compared with glipizide; Ambrogi et al. 1972

| Compound | activity relative to the parent compound |
| --- | --- |
| Cc1cnc(C(=O)NCCc2ccc(S(=O)(=O)NC(=O)N[C@H]3CCC[C@@H](O)C3)cc2)cn1 (relative stereo) [cis-3-hydroxy-glipizide] | significantly less active |
| Cc1cnc(C(=O)NCCc2ccc(S(=O)(=O)NC(=O)N[C@H]3CC[C@H](O)CC3)cc2)cn1 [trans-4-hydroxy-glipizide] | significantly less active |
